Patent publication US20040034076A1, “Novel carbamates and carbamides, production and use thereof as endothelin receptor antagonists” (priority 2000, published 2004)
pKi: −log10 of the molar value.

Columns and labels:
human ETA receptor = target: T1, human ETA receptor (Homo sapiens, UniProt P25101); experiment: ETA receptor binding test ([125J]-ET1, CHO cell membranes); conditions: cloned human ETA receptor-expressing CHO cell membranes, 25 pM [125J]-ET1, 25° C., 30 min
T1 construct: expressed in transfected cells; host or cells: CHO cells
T1 sequence (P25101 21-427): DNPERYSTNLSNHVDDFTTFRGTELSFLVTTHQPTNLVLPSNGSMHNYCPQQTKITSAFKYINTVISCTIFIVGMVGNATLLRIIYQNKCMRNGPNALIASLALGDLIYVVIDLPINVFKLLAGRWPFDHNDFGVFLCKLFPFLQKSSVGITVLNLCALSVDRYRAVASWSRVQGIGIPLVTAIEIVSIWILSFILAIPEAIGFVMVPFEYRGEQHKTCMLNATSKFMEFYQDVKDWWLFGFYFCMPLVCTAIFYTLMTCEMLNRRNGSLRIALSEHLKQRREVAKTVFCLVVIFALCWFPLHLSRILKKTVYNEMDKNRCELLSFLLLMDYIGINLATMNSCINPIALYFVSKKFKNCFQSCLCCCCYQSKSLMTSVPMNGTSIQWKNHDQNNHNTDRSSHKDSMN
Procedure: (§1) For binding studies, cloned human ETA or ETB receptor-expressing CHO cells were employed.
(§2) The ETA or ETB receptor-expressing CHO cells were proliferated in DMEM NUT MIX F12 medium (Gibco, No. 21331-020) using 10% fetal calf serum (PAA Laboratories GmbH, Linz, No. A15-022), 1 mM glutamine (Gibco No. 25030-024), 100 U/ml of penicillin and 100 μg/ml of streptomycin (Gibco, Sigma No P-0781). After 48 hours, the cells were washed with PBS and incubated at 37° C. for 5 minutes with 0.05% trypsin-containing PBS. Neutralization was then carried out with medium and the cells were collected by centrifugation at 300×g.
(§3) For membrane preparation, the cells were adjusted to a concentration of 10^8 cells/ml of buffer (50 mM tris-HCl buff r, pH 7.4) and then disintegrated by ultrasound (Branson Sonifier 250, 40-70 seconds/constant/output 20).
(§4) For the ETA and ETB receptor binding test, the membranes were suspended in incubation buffer (50 mM tris HCl, pH 7.4 with 5 mM MnCl2, 40 mg/ml of bacitracin and 0.2% of BSA) in a concentration of 50 μg of protein per test batch and incubated at 25° C. with 25 pM of [125J]-ET1 (ETA receptor test) or 25 pM of [125I)-ET3 (ETB receptor test) in the presence and absence of test substance. The nonspecific binding was determined using 10^−7 M ET1. After 30 min, the free and the bound radioligand was separated by filtration through GF/B glass fiber filters (Whatman, England) on a Skatron cell collector (Skatron, Lier, Norway) and the filters were washed with ice-cold tris HCl buffer, pH 7.4 with 0.2% of BSA. The radioactivity collected on the filters was quantified using a Packard 2200 CA liquid scintillation counter.

human ETB receptor = target: T2, human ETB receptor (Homo sapiens, UniProt P24530); experiment: ETB receptor binding test ([125I]-ET3, CHO cell membranes); conditions: cloned human ETB receptor-expressing CHO cell membranes, 25 pM [125I]-ET3, 25° C., 30 min
T2 construct: expressed in transfected cells; host or cells: CHO cells
T2 sequence (P24530 27-442): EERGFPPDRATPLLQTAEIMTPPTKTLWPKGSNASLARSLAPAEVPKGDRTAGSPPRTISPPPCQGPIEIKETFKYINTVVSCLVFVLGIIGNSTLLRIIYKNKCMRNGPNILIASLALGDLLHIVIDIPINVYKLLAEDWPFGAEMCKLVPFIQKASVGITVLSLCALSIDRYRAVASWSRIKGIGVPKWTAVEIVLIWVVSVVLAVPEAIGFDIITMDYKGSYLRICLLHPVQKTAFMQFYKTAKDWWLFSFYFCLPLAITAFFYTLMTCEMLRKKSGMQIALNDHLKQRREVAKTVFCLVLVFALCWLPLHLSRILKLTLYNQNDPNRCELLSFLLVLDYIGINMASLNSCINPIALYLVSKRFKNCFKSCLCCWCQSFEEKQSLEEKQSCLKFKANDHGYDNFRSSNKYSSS
Procedure: as §1, §2, §3, §4

SMILES | pKi (human ETA receptor) | pKi (human ETB receptor)
COc1ccc(OC(=O)NC(c2ccccc2)(c2ccccc2)C(Oc2nc(OC)cc(OC)n2)C(=O)O)cc1 (stereo not drawn) [Compound I-170, 2-[(4,6-Dimethoxy-2-pyrimidinyl)oxy]-N-[(4-methoxyphenoxy)-carbonyl]-3,3-diphenyl-β-alanine] | 6.92 | 5.71
COc1ccc(N(C)C(=O)NC(c2ccccc2)(c2ccccc2)C(Oc2nc(OC)cc(OC)n2)C(=O)O)cc1 (stereo not drawn) [Compound I-121, 2-[(4,6-Dimethoxy-2-pyrimidinyl)oxy]-N-{[4-methoxy(methyl)-anilino]carbonyl}-3,3-diphenyl-β-alanine] | 6.51 | ≤ 5.00
Cc1cc(C)nc(OC(C(=O)O)C(NC(=O)N2CCOCC2)(c2ccccc2)c2ccccc2)n1 (stereo not drawn) [Compound I-75, 2-[(4,6-Dimethyl-2-pyrimidinyl)oxy]-N-(4-morpholinylcarbonyl)-3,3-diphenyl-β-alanine] | 6.93 | 5.46
COc1cc(OC)nc(OC(C(=O)O)C(NC(=O)N(C)C)(c2ccccc2)c2ccccc2)n1 (stereo not drawn) [Compound I-11, 2-[(4,6-Dimethoxy-2-pyrimidinyl)oxy]-N-[(dimethylamino)carbonyl]-3,3-diphenyl-β-alanine] | 6.40 | < 5.00
COc1cc(OC)nc(OC(C(=O)O)C(NC(=O)Oc2ccc(C)c(C)c2)(c2ccccc2)c2ccccc2)n1 (stereo not drawn) [Compound I-168, 2-[(4,6-Dimethoxy-2-pyrimidinyl)oxy]-N-[(3,4-dimethylphenoxy)-carbonyl]-3,3-diphenyl-β-alanine] | 6.98 | 6.14
COc1cc(OC)nc(OC(C(=O)O)C(NC(=O)N(C)Cc2ccccc2)(c2ccccc2)c2ccccc2)n1 (stereo not drawn) [Compound I-260, N-{[Benzyl(methyl)amino]carbonyl}-2-[(4,6-dimethoxy-2-pyrimidinyl)oxy]-3,3-diphenyl-β-alanine] | 6.63 | 5.61
COc1cc(OC)nc(OC(C(=O)O)C(NC(=O)N(C)c2ccccc2)(c2ccccc2)c2ccccc2)n1 (stereo not drawn) [Compound I-155, 2-[(4,6-Dimethoxy-2-pyrimidinyl)oxy]-N-[(methylanilino)carbonyl]-3,3-diphenyl-β-alanine] | 6.58 | 5.24
COc1ccc(CN(C)C(=O)NC(c2ccccc2)(c2ccccc2)C(Oc2nc(OC)cc(OC)n2)C(=O)O)cc1 (stereo not drawn) [Compound I-23, 2-[(4,6-Dimethoxy-2-pyrimidinyl)oxy]-N-{[(4-methoxybenzyl)-(methyl)amino]carbonyl}-3,3-diphenyl-β-alanine] | 6.83 | 5.18
CCN(CC)C(=O)NC(c1ccccc1)(c1ccccc1)C(Oc1nc(OC)cc(OC)n1)C(=O)O (stereo not drawn) [Compound I-86, N-[(Diethylamino)carbonyl]-2-[(4,6-dimethoxy-2-pyrimidinyl)oxy]-3,3-diphenyl-β-alanine] | 6.60 | < 5.00

Stronger by pKi (human ETA receptor), values ahead:

pKi (human ETA receptor) | pKi (human ETB receptor) | SMILES
7.01 | 5.63 | COc1cc(OC)nc(OC(C(=O)O)C(NC(=O)OCc2ccccc2)(c2ccccc2)c2ccccc2)n1 (stereo not drawn) [Compound I-140, N-[(Benzyloxy)carbonyl]-2-[(4,6-dimethoxy-2-pyrimidinyl)oxy]-3,3-diphenyl-β-alanine]
7.05 | < 5.00 | COC(=O)NC(c1ccccc1)(c1ccccc1)C(Oc1nc(OC)cc(OC)n1)C(=O)O (stereo not drawn) [Compound I-230, 2-[(4,6-Dimethoxy-2-pyrimidinyl)oxy]-N-(methoxycarbonyl)-3,3-diphenyl-β-alanine]
7.14 | 5.37 | Cc1cc(C)nc(OC(C(=O)O)C(NC(=O)N2CCCCC2)(c2ccccc2)c2ccccc2)n1 (stereo not drawn) [Compound I-52, 2-[(4,6-Dimethyl-2-pyrimidinyl)oxy]-3,3-diphenyl-N-(1-piperidinylcarbonyl)-β-alanine]
7.28 | 5.41 | Cc1cc(C)nc(OC(C(=O)O)C(NC(=O)N2CCCC2)(c2ccccc2)c2ccccc2)n1 (stereo not drawn) [Compound I-26, 2-[(4,6-Dimethyl-2-pyrimidinyl)oxy]-3,3-diphenyl-N-(1-pyrrolidinylcarbonyl)-β-alanine]
7.72 | 6.71 | Cc1cc(C)nc(OC(C(=O)O)C(NC(=O)N(C)C2CCCCC2)(c2ccccc2)c2ccccc2)n1 (stereo not drawn) [Compound I-202, N-{[Cyclohexyl(methyl)amino]carbonyl}-2-[(4,6-dimethyl-2-pyrimidinyl)oxy]-3,3-diphenyl-β-alanine]
7.85 | 5.63 | COc1ccc(CN(C)C(=O)NC(c2ccccc2)(c2ccccc2)C(Oc2nc(C)cc(C)n2)C(=O)O)cc1 (stereo not drawn) [Compound I-194, 2-[(4,6-Dirnethyl-2-pyrimidinyl)oxy]-N-{[(4-methoxybenzyl)-(methyl)amino]carbonyl}-3,3-diphenyl-β-alanine]
7.89 | 5.96 | COc1cc(OC)nc(OC(C(=O)O)C(NC(=O)OCc2cc(OC)c(OC)cc2[N+](=O)[O-])(c2ccccc2)c2ccccc2)n1 (stereo not drawn) [Compound I-266, N-{[(4,5-Dimethoxy-2-nitrobenzyl)oxy]carbonyl}-2-((4,6-dimethoxy-2-pyrimidinyl)oxy]-3,3-diphenyl-β-alanine]
